{
  "source": "patent US20110165279A1",
  "about": "“SWEET POTATO TRYPSIN INHIBITOR AND METHODS FOR TREATING INFLAMMATION AND HYPERALGESIA” (Academia Sinica Office of Public Affairs (Technology …, priority 2010, published 2011)",
  "key": {"[1]": {"system": "mouse hind footpad", "test": "Histological examination of mouse hind footpad after carrageenan (H&E, neutrophil counts)", "assay_type": "in vivo", "conditions": "biopsies 5 hours after Carr, IbTI 40 mg/kg, indomethacin 10 mg/kg", "description": "For histological examination, biopsies of paws were taken 5 hours after Carr injection into the plantar side of right hind paws. The tissue slices were fixed in solution with 1.85% formaldehyde and 1% acetic acid for 1 week at room temperature, then dehydrated by graded ethanol and embedded in Paraffin (Sherwood Medical, St. Louis, Mo., USA). Sections (thickness 5 μm) were deparaffinized with xylene and stained with hematoxylin and eosin. All samples were observed and photographed with BH2 Olympus microscopy (Japan). Every 3-5 tissue slices were randomly chosen from control, Carr, Indo and IbTI-treated (40 mg/kg) groups. The numbers of neutrophils were counted in each scope (400×) and average counts from 5 scopes of each tissue slice were calculated."}, "[2]": {"system": "hind paw edema induced by λ-carrageenan in mice", "test": "λ-carrageenan-induced hind paw edema test in mice", "assay_type": "in vivo, mouse", "conditions": "10 mg/kg i.p., 3, 4 and 5 hours after Carr injection; p<0.01 or p<0.001", "description": "Male ICR mice (18-25 g) were obtained from the BioLASCO Taiwan Co., Ltd. The animals were kept in plexiglass cages under a constant temperature of 22±1° C., relative humidity 55±5%, and a light regime of 12 hours dark/12 hour light for at least 2 weeks before the experiment. They were given food and water ad libitum. All experimental procedures were performed according to the NIH Guide for the Care and Use of Laboratory Animals. The placebo groups were given subcutaneous 0.1 ml/10 g saline using a bent blunted 27-gauge needle connected to a 1 ml syringe. All tests were conducted under the guidelines of the International Association for the Study of Pain [Zimmermann, M., Ethical guidelines for investigations of experimental pain in conscious animals. Pain. 1983, 16, 109-110].\nMale ICR mice (eight per group), 18 g to 25 g, were fasted for 24 hours before the experiment with free access to water. […] Paw volume was measured immediately after Carr injection and at 1, 2, 3, 4 and 5 hours intervals after the administration of the edematogenic agent using a plethysmometer (model 7159, Ugo Basile, Varese, Italy). The degree of swelling induced was evaluated by the ratio a/b, where a is the volume of the right hind paw after Carr treatment, and b is the volume of the right hind paw before Carr treatment."}},
  "data": [
    {"smiles": "COc1ccc2c(c1)c(CC(=O)O)c(C)n2C(=O)c1ccc(Cl)cc1", "note": "[Indomethacin, indomethacin]", "values": [
      {"measurement": "histological appearance of hind footpad vs Carr only", "setting": "[1]", "value": "significantly reduced the level of hemorrhage, edema and inflammatory cell infiltration"},
      {"measurement": "neutrophil numbers in paw tissue vs Carr-treated group", "setting": "[1]; p<0.01", "value": "significantly decreased the number of inflammatory neutrophil infiltration"},
      {"measurement": "paw edema", "setting": "[2]", "value": "significantly decreased paw edema"}
    ]}
  ]
}
